According to US20260034125A1, “N-PHENYL-1-(PHENYLSULFONYL)PIPERIDIN-4-AMINE DERIVATIVES AS CCR6 INHIBITORS” (priority 2023, published 2026):

How the values were obtained:
[1] = tested on: Human CD4+ T cells; assay: CD4+ T cell chemotaxis assay towards CCL20; assay type: cell-based; conditions: relative -LogIC50, 150 ng/ml CCL20, Transwell, 3 h
From the text: Human CD4+ T cells were isolated from buffy coats of healthy donors using a CD4+ T Cell Isolation Kit (Miltenyi Biotec130-096-533). Isolated T cells were stimulated overnight with anti-CD3 and anti-CD28 antibodies (Biolegend 300314/302934) in growth medium (RPMI1640, 10% heat-inactivated FBS, 1× pen/strep (Gibco 15140)). For the chemotaxis assay, Corning Transwell plates were used with a pore size of 5 μm (Corning 3388). T cells were counted and diluted to 6*10^6 cells/ml in chemotaxis medium (RPMI1640, 1% BSA, pen/strep). Compounds were four-fold serially diluted in DMSO. Further dilutions were made in chemotaxis medium. Cells were incubated with test compounds for 30 min at 37° C. prior to initiation of the assay (3*10^6 cells/ml). Final DMSO concentration in the assay was 0.2%. Wells of the Transwell plates were filled with 200 μl chemotaxis medium containing 150 ng/ml CCL20 (R&D systems 360-MP). 50 μl of the cell/compound suspension was added to the inserts of the Transwell plates (150,000 cells/insert). The Transwell plates were placed in an incubator at 37° C., 5% CO2 for 3 h. After 3 h, the number of migrated cells was quantified using CellTiter Glo (Promega). Percentage inhibition values were calculated based on the low and high signal obtained with 0.2% DMSO in chemotaxis medium without and with CCL20, respectively. The relative −LogIC50 was determined with GraphPad Prism 9 using a four-parameter dose-response model.

[2] = biological target: T1, human CCR6 (Homo sapiens, UniProt P51684); assay: Human CCR6-Cre reporter assay; assay type: cell-based; design: The second construct contained the open reading frame of human CCR6 in the pUNO1 backbone; host or cells: 293 FT cells; conditions: relative -LogIC50; transfected 293 FT cells, 6 μM Forskolin, 6 nM CCL20, luciferase readout, 5h
T1 sequence (P51684 1-374): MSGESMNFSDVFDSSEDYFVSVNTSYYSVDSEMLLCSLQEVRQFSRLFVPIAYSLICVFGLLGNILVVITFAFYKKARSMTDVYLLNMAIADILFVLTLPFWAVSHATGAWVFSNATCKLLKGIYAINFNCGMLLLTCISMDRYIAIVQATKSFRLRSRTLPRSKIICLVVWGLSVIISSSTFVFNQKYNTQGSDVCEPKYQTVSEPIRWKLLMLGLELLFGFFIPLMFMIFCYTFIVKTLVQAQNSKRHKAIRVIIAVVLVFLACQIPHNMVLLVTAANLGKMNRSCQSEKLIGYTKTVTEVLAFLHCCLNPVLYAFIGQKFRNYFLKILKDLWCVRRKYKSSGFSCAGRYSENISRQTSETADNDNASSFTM
Protocol: 293 FT cells were transfected with 2 constructs using TransIT-293 (Mirus). The first construct (pGL4.29, Promega) expressed the luciferase reporter gene luc2P in response to the binding of cAMP-induced CREB to the CRE element in its promoter. The second construct contained the open reading frame of human CCR6 in the pUNO1 backbone under the control of an enhanced CMV promoter (In VivoGen). 48h after transfection, cells were harvested and diluted to 750,000 cells/ml in culture medium (DMEM, 10% FBS, 1× pen/strep (Gibco 15140)). Compounds were 2.5-fold serially diluted in DMSO. Further dilutions were made in assay medium (DMEM, 10% FBS, 1× pen/strep, 6 μM Forskolin, 6 nM CCL20). 4 μl of the compound solution was added to a white MW384 plate, followed by 20 μl of the cell suspension. Final DMSO concentration in the assay was 0.1%. The MW384 plate was placed in an incubator at 37° C., 5% CO2 for 5h. Luciferase activity was determined by addition of 24 μl of a 2.5× diluted BriteLite luciferase solution (Perkin Elmer), followed by luminescence measurement using a VICTOR Plate reader (Perkin Elmer). […] The relative-LogIC50 was determined with GraphPad Prism 9 using a four-parameter dose-response model.

SMILES | IC50 [1] | IC50 [2]
Cc1c[nH]c2ncc(-c3ccc(S(=O)(=O)[C@H]4CC[C@H](Nc5ccc(C6(C(F)(F)F)CC6)cc5)CC4)cc3)cc12 [Example 21, N-[(trans)-4-(4-{3-methyl-1H-pyrrolo[2,3-b]pyridin-5-yl}benzenesulfonyl)cyclohexyl]-4-[1-(trifluoromethyl)cyclopropyl]aniline] | 1.58 nM | 63.1 nM
Cc1n[nH]c2ncc(-c3ccc(S(=O)(=O)[C@H]4CC[C@H](Nc5ccc(C6(C(F)(F)F)CC6)cc5)CC4)cc3)cc12 [Example 22, N-[(trans)-4-(4-{3-methyl-1H-pyrazolo[3,4-b]pyridin-5-yl}benzenesulfonyl)cyclohexyl]-4-[1-(trifluoromethyl)cyclopropyl]aniline] | 2.51 nM | 100 nM
CC(C)c1nnc2ccc(-c3ccc(S(=O)(=O)[C@H]4CC[C@H](Nc5ccc(C6(C#N)CC6)cn5)CC4)cc3)cn12 [Example 30, 1-(6-{[(trans)-4-{4-[3-(propan-2-yl)-[1,2,4]triazolo[4,3-a]pyridin-6-yl]benzenesulfonyl}cyclohexyl]amino}pyridin-3-yl)cyclopropane-1-carbonitrile] | 251 nM | 200 nM
CC(C)c1nnc2ccc(-c3ccc(S(=O)(=O)N4CCC(Nc5ccc(C6(C#N)CC6)cn5)CC4)cc3)cn12 [Example 31, 1-{6-[(1-{4-[3-(propan-2-yl)-[1,2,4]triazolo[4,3-a]pyridin-6-yl]benzenesulfonyl}piperidin-4-yl)amino]pyridin-3-yl}cyclopropane-1-carbonitrile] | 79.4 nM | 200 nM
Cc1cc(-c2ccc(S(=O)(=O)N3CCC(Nc4ccc(C5(C#N)CC5)cn4)CC3)cc2)cn2c(C(C)C)nnc12 [Example 32, 1-{6-[(1-{4-[8-methyl-3-(propan-2-yl)-[1,2,4]triazolo[4,3-a]pyridin-6-yl]benzenesulfonyl}piperidin-4-yl)amino]pyridin-3-yl}cyclopropane-1-carbonitrile] | 126 nM | 200 nM
N#CC1(c2ccc(NC3CCN(S(=O)(=O)c4ccc(-c5ccc6n[nH]c(=O)n6c5)cc4)CC3)nc2)CC1 [Example 35, 1-(6-{[1-(4-{3-oxo-2H,3H-[1,2,4]triazolo[4,3-a]pyridin-6-yl}benzenesulfonyl)piperidin-4-yl]amino}pyridin-3-yl)cyclopropane-1-carbonitrile] | 1580 nM | 398 nM
CC(C)c1nnc2ccc(-c3ccc(S(=O)(=O)N4CCC(Nc5ccc(C6(C(F)(F)F)CC6)cn5)CC4)cc3)cn12 [Example 36, N-(1-{4-[3-(propan-2-yl)-[1,2,4]triazolo[4,3-a]pyridin-6-yl]benzenesulfonyl}piperidin-4-yl)-5-[1-(trifluoromethyl)cyclopropyl]pyridin-2-amine] | 3.16 nM | 31.6 nM
O=S(=O)(c1ccc(-c2ccc3nccn3c2)cc1)N1CCC(Nc2ccc(C3(C(F)(F)F)CC3)cn2)CC1 [Example 37, N-[1-(4-{imidazo[1,2-a]pyridin-6-yl}benzenesulfonyl)piperidin-4-yl]-5-[1-(trifluoromethyl)cyclopropyl]pyridin-2-amine] | 5.01 nM | 100 nM
CC(C)c1nnc2cnc(-c3ccc(S(=O)(=O)N4CCC(Nc5ccc(C6(C(F)(F)F)CC6)cc5)CC4)cc3)cn12 [Example 41, 1-{4-[3-(propan-2-yl)-[1,2,4]triazolo[4,3-a]pyrazin-6-yl]benzenesulfonyl}-N-{4-[1-(trifluoromethyl)cyclopropyl]phenyl}piperidin-4-amine] | 3.98 nM | 63.1 nM
Cc1nnc2ccc(-c3ccc(S(=O)(=O)N4CCC(Nc5ccc(C6(C(F)(F)F)CC6)cc5)CC4)cc3)cn12 [Example 42, 1-(4-{3-methyl-[1,2,4]triazolo[4,3-a]pyridin-6-yl}benzenesulfonyl)-N-{4-[1-(trifluoromethyl)cyclopropyl]phenyl}piperidin-4-amine] | 6.31 nM | 126 nM
